# Key:
# [1] = test system: A549 cells; assay: MTT cytotoxicity assay on A549 cells; assay type: cell-based; conditions: Homo sapiens, after 72 hours, read-out: IC50 concentrations
# Procedure: The cytoxicity properties of the extract were determined by using MTT assay. MTT dye is a water-soluble yellow dye that is decreased in viable cells to MTT-formazan (3-[4,5-dimethylthiazol-2-yl]-3,5-diphenylformazan) that is an insoluble purple colored product, by the succinate dehydrogenase mitochondrial enzyme. The cells were seeded in 96-well Microplates at a density of 2×10^5 cells/ml. After 24 hours incubation, the cells were treated with various concentrations of Morinda leaf, or Clinacanthus spp. Leaves and root extract ([…]) for 24, 48 and 72 h. After 72 hours of incubation, 20 μL of MTT solution (5 mg/ml in PBS) was added in each well and the plates incubated for 4 hours. Then, after removing the media the formazan crystals were dissolved with 100 μL DMSO. Finally the absorbance was determined at 570 and 630 nm in a microplate reader (ECAN, Sunrise™, Männedorf, Switzerland). Cell viability was calculated as the percentage of absorbent compared to control. The 50% inhibitory concentration (IC50) value, defined as the amount of Morinda citrifolia leaf, or Clinacanthus spp. Leaves and root extract that inhibits 50% of cell growth, was calculated from the concentration-response curves. All experiments were carried out in triplicate. Three independent experiments performed in triplicate were used for these calculations. […]
# [2] = test system: A549 cells (lung cancer); assay: Morphological changes under normal phase contrast inverted microscope; assay type: cell-based, human; conditions: 400x
# Procedure: Wehi-3B (blood cancer) or A549 (lung cancer) cells at concentration of 1×10^6 cells/ml were cultured in RPMI 1640 (ATCC, USA) medium supplemented with 10% fetal bovin serum and were seeded into […] culture flask. […] The morphological changes of the cells were observed under normal inverted microscope. Untreated cells were used as negative control. Some morphological appearances such as plasma membrane blebbing, rounding up the cells, cell detachment, cell shrinkage and formation of vacuole in the cell were observed.
# Similarly Human lung fibroblast (MRC5), human lung adenocarcinoma (A549) cell lines, Essential Modified Eagle's Medium (EMEM) and Kaighn's Modification of Ham's F-12 (F-12K) medium were obtained from American Type Culture Collection (ATCC). MRC5 and A549 cells were cultured in EMEM and F-12K medium, respectively. Both media supplemented with 10% fetal bovine serum (FBS) and 1% of 100 μg/mL penicillin and streptomycin. Cells were grown in a humidified incubator at 37° C. with 5% CO2.
# [3] = test system: A549 cells (lung cancer); assay: AO/PI double staining fluorescence microscopy; assay type: cell-based, human; conditions: 200x
# Procedure: AO/PI double staining was carried out to visualize any morphological changes in the cells upon treatment and also to semi-quantitated viable, apoptotic and necrotic cells, as shown in FIG. 3. […] After 24 hours treatment, blebbing of the cell membrane and dense green nucleus, which indicated nuclear chromatin condensation were noticeable (FIGS. 3(b) and 3(e)). Both early apoptosis features (blebbing and chromatin condensation) and late phases of apoptosis, which specify presence of intense reddish-orange colour due to acridine orange binding to denatured DNA, were observed more apparent at 48 hours of treatment (FIGS. 3(c) and 3(f)) and prominent at 72 hours (FIGS. 3(d) and 3(g)).
# [4] = test system: A549 (lung cancer); assay: Colourimetric assay of caspase 3, 8 and 9 in A549; assay type: cell-based, human; conditions: A549, treated vs untreated cells, 24-72 hours
# Procedure: The colorimetric assay of caspase 3 was performed using fluorometric and colorimetric assay kit (biotium kit). Wehi-3B (blood cancer) or A549 (lung cancer) cells at concentration of 1×10^6 cells/ml were cultured in RPMI 1640 (ATCC, USA) medium supplemented with 10% fetal bovin serum and were seeded into […] culture flask. […] Untreated cells acted as control. The cells were lysed with cold lysis buffer and incubated for 10 minutes on ice. Then, cell lysate was spun down at 10000 rpm for 5 minutes. The supernatant was transferred to new wells and 50 μl assay buffer was added to each samples. Then, 5 μl of enzyme substrate (caspase-3 and 8 substrate) was added to each sample and incubated at 37° c. for 30-60 minutes in a dark place. […]. The samples were read at 495 nm in a microplate reader. Finally, the results were shown as optical density (495 nm, mean SD).
# [5] = test system: A549 cells (lung cancer); assay: Flow cytometric cell cycle phase distribution; assay type: cell-based, human; conditions: A549, IC50 concentration; for cell cycle arrest: 12-72 hours
# Procedure: The Wehi-3B (blood cancer) or A549 (lung cancer) cells (2×10^5 cells/mL) were treated with IC50 concentration of Morinda spp. leaves, or Clinacanthus spp. leaves with or without Zingiber extract and compared with erlotinib. After 12, 24, 48, and 72 hours of incubation, the cells were trypsinized, washed, fixed in 70% ethanol, stained with 1 mg/mL PI and analysed by flow cytometry (BD FACS Canto II, USA).
# For flow cytometry analysis fixation of cell population must be performed to keep the integrity and the cell pellets were fixed by adding of 500 μl of 70% chilled ethanol and kept at −20° c. for 5-7 days. Then, the cells were centrifuged at 1000 rpm for 10 minutes and the ethanol was removed. The cells were washed with washing solution containing PBS, EDTA, bovine serum albumin and sodium azide twice, and the pellet cells were resuspended to staining buffer containing 1 ml PBS and 3 μl PI (10 mg/ml) and 10 μl RNase A (50 mg/ml) for 30 minutes on ice dark place. RNase was added in order to permit PI to bind exactly to DNA. The DNA content of cells was analysed with a BD flow cytometer, and the data analysis was performed by using summit V4.3 software.
# [6] = test system: A549 cells injected subcutaneously; assay: In vivo tumor xenograft model; design: species or system mice; conditions: erlotinib 50 mg/kg, daily oral gavage 21 days
# Procedure: Male BALB/C mice (6 weeks old, weighing 19-20 g) were purchased from Faculty of Veterinary Medicine, University Putra Malaysia. Mice were housed in laminar air-flow cabinets under pathogen-free conditions with a 12-h light/12-h dark schedule and fed with autoclaved standard chow and water ad libitum. A549 cells (2×10^7) resuspended in 100 μL PBS were injected subcutaneously into the backs of mice. When tumor size reached approximately 100 mm^3, after 14 days of implantation, mice were randomly assigned to the following experimental groups and administered daily by oral gavage for 21 days: (a) saline; (b) erlotinib (50 mg/kg); (c) 150 mg/kg and (d) 300 mg/kg of Morinda spp. leaves, Clinacanthus spp. leaves. Mice were sacrificed via intraperitoneal injection of ketamine HCl (100 mg/kg) and xylazine (10 mg/kg). Tumor was collected. Some were kept in liquid nitrogen for gene expression, while others were fixed in 10% formalin and embedded in paraffin for hematoxylin and eosin (H&E) and immunohistochemical (IHC) examination. IHC kits (ChemMate™ DAKO EnVision™ Detection Kit, Peroxidase/DAB, Rabbit/Mouse) were purchased from Dako, Denmark. […]
# Data was expressed as mean±standard deviation (mean±SD) of at least three independent experiments; significant differences (p<0.05) using one-way analysis of variance (ANOVA) and Duncan test using statistical analysis IBM SPSS Statistics 21 software.
# [7] = test system: tumor tissues; assay: Mouse apoptosis RT-PCR-Array on tumor tissues; assay type: in vivo, mice
# Procedure: Male BALB/C mice (6 weeks old, weighing 19-20 g) were purchased from Faculty of Veterinary Medicine, University Putra Malaysia. Mice were housed in laminar air-flow cabinets under pathogen-free conditions with a 12-h light/12-h dark schedule and fed with autoclaved standard chow and water ad libitum. A549 cells (2×10^7) resuspended in 100 μL PBS were injected subcutaneously into the backs of mice. When tumor size reached approximately 100 mm^3, after 14 days of implantation, mice were randomly assigned to the following experimental groups and administered daily by oral gavage for 21 days: (a) saline; (b) erlotinib (50 mg/kg); (c) 150 mg/kg and (d) 300 mg/kg of Morinda spp. leaves, Clinacanthus spp. leaves. Mice were sacrificed via intraperitoneal injection of ketamine HCl (100 mg/kg) and xylazine (10 mg/kg). Tumor was collected. Some were kept in liquid nitrogen for gene expression, while others were fixed in 10% formalin and embedded in paraffin for hematoxylin and eosin (H&E) and immunohistochemical (IHC) examination. IHC kits (ChemMate™ DAKO EnVision™ Detection Kit, Peroxidase/DAB, Rabbit/Mouse) were purchased from Dako, Denmark. The primary antibody was anti-EGFR antibody ab15669 (Abeam; Cambridge, United Kingdom). This protocol was approved by the Animal Care and Use Committee of University Putra Malaysia (UPM/IACUC/AUP-R016/2013).
# RNA was isolated using Trizol (Invitrogen, Carlsbad, Calif.). Custom RT^2 Profiler PCR Array (CAPM11988), RT^2 SYBR Green qPCR Mastermix, RT^2 First Strand Kit and RNase-Free DNase Set were purchased from SuperArray Bioscience Corporation (Frederick, Md.). Quantitative RT-PCR array for differentially expressed genes of interest was performed utilizing RT^2 Profiler PCR Array Data Analysis version 3.5 (SABiosciences; Fredrick, Md., USA), which normalized to Hsp90ab1 (NM_008302) and Gapdh (NM_008084). RT-PCR data is represented as the average relative mRNA gene expression of each experimental group (n=3).
# [8] = test system: Spleen tissue of leukaemic BALB/c mice; assay: TUNEL assay of spleen tissue; assay type: in vivo; conditions: Morinda at low and high doses
# [9] = Erlotinib 50 mg/kg, vs untreated
smiles,measurement,setting,value
C#Cc1cccc(Nc2ncnc3cc(OCCOC)c(OCCOC)cc23)c1 [erlotinib],IC50,[1],2.83 mg/L
same,morphological changes of A549 cells,[2]; after 24 h,most of the cells exhibit normal morphology while some cells show cell shrinkage
same,morphological changes of A549 cells,[2]; after 48 h,clear apoptogenic morphology such as blebbing and cell shrinkage observed
same,morphological changes of A549 cells,[2]; after 72 h,"most of the cells were detached with obvious cell shrinkage, and blebbing of the cell membrane"
same,AO/PI double-stained morphology,[3]; after 24 h,cells exhibit blebbing of the cell membrane and bright green nucleus showing condensation of chromatin
same,AO/PI double-stained morphology,[3]; after 48 h,late apoptosis features were seen
same,AO/PI double-stained morphology,[3]; after 72 hours,more late apoptosis
same,activity of caspase 9,[4],remained unchanged
same,activity of caspase-3,[4],significantly (P<0.05) increased
same,activity of caspase-8,[4],significantly (P<0.05) increased
same,S and G2/M phase cells,[5],concomitant decrease
same,cell cycle arrest,[5],induced G0/G1 phase cell cycle arrested
same,cell cycle arrest,[5]; listed as erlotnib,induced G0/G1 arrest
same,tumor size,[6],36.26±37.00 mm^3
same,Fold Change Bcl2,[7]; [9],−3.57 fold
same,Fold Change Birc5,[7]; [9],−2.40 fold
same,Fold Change Jak2,[7]; [9],−1.26 fold
same,Fold Change Stat3,[7]; [9],1.06 fold
same,Fold Change Stat5a,[7]; [9],1.42 fold
same,Fold Change Trp53,[7]; [9],−1.10 fold
same,survivin and Bcl-2 expression,[7]; erlotinib positive control,down-regulation
CC1=C(/C=C/C(C)=C/C=C/C(C)=C/C(=O)O)C(C)(C)CCC1 [ATRA],apoptosis in spleen tissue (TUNEL),[8],significant (P<0.05) apoptosis

# Reference: US20150265669A1, “METHODS AND COMPOSITIONS FOR INHIBITING CANCER CELL GROWTH” (priority 2014, published 2015)
